# From patent publication US20100167931A1, “HETEROCYCLICALLY SUBSTITUTED HETEROCYCLYLCARBOXYLIC ACID DERIVATIVES” (Bayer CropScience AG, priority 2007, published 2010)
# Tested on: green peach aphid (Myzus persicae)
# Test: Activity increase by ammonium/phosphonium salts in combination with penetrants, Myzus persicae test
# Assay type: in vivo
# Conditions: 20 ppm, +AS 1000 ppm, bell pepper plants
# Experimental: Activity Increase by Ammonium/Phosphonium Salts in Combination with Penetrants Myzus persicae Test
# Solvent: 7 parts by weight of dimethylformamide
# Emulsifier: 2 parts by weight of alkylaryl polyglycol ether
# To produce a suitable preparation of active compound, 1 part by weight of active compound is mixed with the stated amounts of solvent and emulsifier, and the concentrate is diluted with emulsifier-containing water to the desired concentration. If the addition of ammonium salts or ammonium salts and penetrants is required, these are in each case added in a concentration of 1000 ppm after dilution to the finished solution of the preparation.
# Bell pepper plants (Capsicum annuum) which are heavily infested by the green peach aphid (Myzus persicaei) are treated by being sprayed with the active compound preparation at the desired concentration.
# After the desired period of time, the kill in % is determined. 100% means that all animals have been killed; 0% means that none of the animals have been killed.
row,Structure (SMILES),Kill (%) after 6 d +AS 1000 ppm
1,CC(C)Nc1c(-c2ncccc2Cl)c(Cl)nc2c(C(=O)NS(C)(=O)=O)cnn12 [Example I-32],60%

# Same assay, conditions: 20 ppm, +AS + RME in each case 1000 ppm, bell pepper plants
row,Structure (SMILES),Kill (%) after 6 d +AS + RME in each case 1000 ppm
1,CC(C)Nc1c(-c2ncccc2Cl)c(Cl)nc2c(C(=O)NS(C)(=O)=O)cnn12 [Example I-32],90%

# Same assay, conditions: 20 ppm, active compound alone, bell pepper plants
row,Structure (SMILES),Kill (%) after 6 d
1,CC(C)Nc1c(-c2ncccc2Cl)c(Cl)nc2c(C(=O)NS(C)(=O)=O)cnn12 [Example I-32],10%

# Tested on: Boophilus microplus
# Test: Boophilus microplus test (injection)
# Assay type: in vivo
# Conditions: application rate of 20 μg/animal
# Experimental: Boophilus microplus Test (Injection) Solvent: dimethyl sulphoxide To produce a suitable preparation of active compound, 1 part by weight of active compound is mixed with the stated amount of solvent, and the concentrate is diluted with solvent to the desired concentration. The solution of active compound is injected into the abdomen (Boophilus microplus), the animals are transferred into dishes and stored in a climatized room. After the desired period of time, the effect in % is determined. 100% means that none of the ticks has laid any fertile eggs.
row,Structure (SMILES),effect (no fertile eggs laid)
1,CC(C)C(C)Nc1c(-n2nc(C(F)(F)F)cc2C(F)(F)F)c(Cl)nc2c(C(=O)NS(C)(=O)=O)cnn12 (centres unmarked) [Example I-4],≥ 80%

# Tested on: not listed separately
# Test: logP determination by HPLC on reverse-phase column (EEC Directive 79/831 Annex V.A8)
# Assay type: physicochemical
# Conditions: HPLC reverse-phase C 18, 43° C., pH 2.7, 0.1% aqueous formic acid and acetonitrile
# Experimental: The logP values given in the tables and preparation examples above were determined in accordance with EEC Directive 79/831 Annex V.A8 by HPLC (High Performance Liquid Chromatography) on a reverse-phase column (C 18). Temperature: 43° C. The determination was carried out by LC-MS at pH 2.7 using 0.1% aqueous formic acid and acetonitrile (containing 0.1% formic acid) as mobile phases; linear gradient from 10% acetonitrile to 95% acetonitrile. Calibration was carried out using unbranched alkan-2-ones (having 3 to 16 carbon atoms) with known logP values (determination of the logP values by the retention times using linear interpolation between two successive alkanones).
row,logP,Structure (SMILES)
1,"m/z 457, logP 3.11",CC(C)Nc1c(-n2nc(C(F)(F)F)cc2C(F)(F)F)c(Cl)nc2c(C(=O)O)cnn12 [Example I-20]
2,"m/z 469, logP 3.22",O=C(O)c1cnn2c(NCC3CC3)c(-n3nc(C(F)(F)F)cc3C(F)(F)F)c(Cl)nc12 [Example I-23]
3,"m/z 383, logP 2.81",CC(C)C(C)Nc1c(-n2cc(Cl)cn2)c(Cl)nc2c(C(=O)O)cnn12 (centres unmarked) [Example I-25]
4,logP 2.20,Cc1nn(C)c(-c2c(Cl)nc3c(C(=O)O)cnn3c2NC(C)C)c1Cl [Example I-57]

# Same assay, conditions: intermediates of the formula (IV); HPLC reverse-phase C18, 43° C., pH 2.7 (0.1% aqueous formic acid/acetonitrile)
row,logP,Structure (SMILES)
1,"m/z 412, logP 1.37",COC(=O)c1cnn2c(O)c(-n3nc(C(F)(F)F)cc3C(F)(F)F)c(O)nc12 [IV-3]
2,"m/z 310, logP 0.43",COC(=O)c1cnn2c(O)c(-n3cc(Cl)cn3)c(O)nc12 [IV-4]
3,"m/z 321, logP 0.43",COC(=O)c1cnn2c(O)c(-c3nc(C)sc3C)c(O)nc12 [IV-5]
4,logP 0.78,COC(=O)c1cnn2c(O)c(-c3cncc(Br)c3)c(O)nc12 [IV-15]
5,logP 0.59,COC(=O)c1cnn2c(O)c(-c3c(Cl)c(C)nn3C)c(O)nc12 [IV-17]
6,logP 0.91,COC(=O)c1cnn2c(O)c(-c3ncc(C(F)(F)F)cc3F)c(O)nc12 [IV-19]
7,logP 0.65,COC(=O)c1cnn2c(O)c(-c3ncccc3C(F)(F)F)c(O)nc12 [IV-20]

# Same assay, conditions: intermediates of the formula (V); HPLC reverse-phase C18, 43° C., pH 2.7 (0.1% aqueous formic acid/acetonitrile)
row,logP,Structure (SMILES)
1,"m/z 448, logP 3.64",COC(=O)c1cnn2c(Cl)c(-n3nc(C(F)(F)F)cc3C(F)(F)F)c(Cl)nc12 [V-3]
2,"m/z 346, logP 2.50",COC(=O)c1cnn2c(Cl)c(-n3cc(Cl)cn3)c(Cl)nc12 [V-5]
3,"m/z 354, logP 1.88",COC(=O)c1cnn2c(Cl)c(-c3c(C)nn(C)c3C)c(Cl)nc12 [V-8]
4,logP 2.67,COC(=O)c1cnn2c(Cl)c(-c3c(Cl)c(C)nn3C)c(Cl)nc12 [V-18]
5,logP 2.61,COC(=O)c1cnn2c(Cl)c(-c3ncccc3C(F)(F)F)c(Cl)nc12 [V-21]

# Same assay, conditions: intermediates of the formula (VI); HPLC reverse-phase C18, 43° C., pH 2.7 (0.1% aqueous formic acid/acetonitrile)
row,logP,Structure (SMILES)
1,"m/z 397, logP 3.59",COC(=O)c1cnn2c(NC(C)C(C)C)c(-n3cc(Cl)cn3)c(Cl)nc12 (centres unmarked) [VI-9]
2,"m/z 382, logP 2.76",COC(=O)c1cnn2c(NC(C)C)c(-c3ncc(F)cc3F)c(Cl)nc12 [VI-11]
3,"m/z 431, logP 2.54",COC(=O)c1cnn2c(NC(C)C(F)(F)F)c(-c3c(C)nn(C)c3C)c(Cl)nc12 (centres unmarked) [VI-12]

# Same assay, conditions: reverse-phase C18 HPLC column; HPLC reverse-phase C 18, 43° C., pH 2.7, 0.1% aqueous formic acid and acetonitrile
row,Structure (SMILES),chromatographic logP
1,"N#CC(C#N)c1c(Cl)cncc1Cl [2-(3,5-dichloropyridin-4-yl)malononitrile]",0.9
2,"COC(=O)c1cnn2c(Cl)c(-n3nc(C)cc3C)c(Cl)nc12 [Example V-1, Methyl 5,7-dichloro-6-(3,5-dimethyl-1H-pyrazol-1-yl)pyrazolo[1,5-a]pyrimidine-3-carboxylate]",2.16
3,"COC(=O)c1cnn2c(Cl)c(-c3ncc(Cl)cc3Cl)c(Cl)nc12 [Example V-2, Methyl 5,7-dichloro-6-(3,5-dichloropyridin-2-yl)pyrazolo[1,5-a]pyrimidine-3-carboxylate]",3.12

# The remaining lines, values ahead:
row,chromatographic logP,Structure (SMILES)
1,0.41,"COC(=O)c1cnn2c(O)c(-n3nc(C)cc3C)c(O)nc12 [IV-1, Methyl 6-(3,5-dimethyl-1H-pyrazol-1-yl)-5,7-dihydroxypyrazolo[1,5-a]pyrimidine-3-carboxylate]"
2,0.74,"COC(=O)c1cnn2c(O)c(-c3ncc(Cl)cc3Cl)c(O)nc12 [IV-2, Methyl 6-(3,5-dichloropyridin-2-yl)-5,7-dihydroxypyrazolo[1,5-a]pyrimidine-3-carboxylate]"
3,3.79,"COC(=O)c1cnn2c(NCC(F)(F)F)c(-n3nc(C(F)(F)F)cc3C(F)(F)F)c(Cl)nc12 [VI-2, Methyl 6-[3,5-bis(trifluoromethyl)-1H-pyrazol-1-yl]-5-chloro-7-[(2,2,2-trifluoroethyl)amino]-pyrazolo[1,5-a]pyrimidine-3-carboxylate]"
